Values after ≈ are worked out from the molar mass of the structure shown. Counter-ions that a name gives are not always drawn. Like-named read-outs stand apart in the source and are kept apart here.
What was measured:
[1] = test system: CDK1; design: method as in Falke et al. [34]; conditions: radiometric; ref Falke et al. [34]; cited from earlier work
[2] = Kinetic solubility, laser nephelometry; type: physicochemical; conditions: for solubility kinetic: aqueous phosphate buffer, aqueous buffer, kinetic from dmso stock, phosphate buffer pH 7.4, nephelometry, mean value and range, read-out: Sexp., kin., pH 7.4 (kinetic solubility)
Protocol: The kinetic solubility was determined using laser nephelometry. A stock solution based on the results of the thermodynamic solubility measurement of the test compounds in DMSO was prepared. The stock solution was diluted with DMSO to get different concentrations. The DMSO dilutions (5 µL) were placed on a 96-well plate filled with aqueous phosphate buffer pH 7.4 (195 µL, same buffer as for thermodynamic solubility). Two dilution series of the stock solution were measured. A blank was determined for every measurement. The well plate was scanned by a nephelometer (Nephelostar Plus, BMG Labtech, Ortenberg, Germany). Precipitated particles scatter the laser light which is detected by the nephelometer. The intensity of the scattered light is assumed to be proportional to the particle concentration in the suspension. The different concentrations were plotted versus the intensities measured by the nephelometer. The resulting kick-off curves led directly to the kinetic solubility by determining the intersection of the linear straight line paralleling the x axis and the linear slope.

[3] = Thermodynamic solubility, shake-flask method with HPLC; type: physicochemical; conditions: aqueous phosphate buffer, thermodynamic from solid, phosphate buffer pH 7.4, shake-flask, 25 °C, mean value and range, read-out: Sexp., therm., pH 7.4 (thermodynamic solubility)
Protocol: For determination of thermodynamic solubility an aqueous phosphate buffer at pH 7.4 with sodium chloride was used. The buffer was prepared by dissolving Na2HPO4 × 2 H2O (298 mg), KH2PO4 (19 mg) and NaCl (800 mg) in water (100 mL). The pH was adjusted to 7.4 by addition of aq. hydrochloric acid (3 mol/L). The thermodynamic solubility was determined using a shake-flask method with quantification by a buffer-HPLC method. […] The mixtures were shaken at 25 °C and 400 rpm for 24 and 48 h (IKA KS 3000 ic control, IKA-Werke, Staufen, Germany). For each time (24 and 48 h) two independent measurements at two different detection wavelengths (254 and 280 nm) were determined. After 24 h and 48 h the mixtures were inspected for remaining solids. The concentrations in the resulting saturated solutions were quantified by isocratic HPLC with external standard calibration. […] For calibration, a stock solution of the test compounds in DMSO was prepared and diluted with DMSO to suitable concentrations. The AUC at the wavelength 254 nm and 280 nm was used for quantification.

[4] = target: CK1; assay: Protein kinase assay, radiometric; type: biochemical; conditions: dose response curves, triplicates
Protocol: (§1) The new compounds 11–16 were tested on an array of protein kinases of the CMGC family. First, the kinases were incubated with 10 µM solutions of the test compounds and the residual activities compared to controls were measured. The IC50 values of promising compounds were then determined from concentration-response curves (Table 1).
(§2) Protein kinase assays with the derivatives 11–15 were carried out by radiometric methods using protein kinases, reagents, and conditions as described before. The DYRK1A inhibitory activities of the Mannich bases 16, 27 and 28 were assayed in 384-well plates using the ADP-GloTM assay kit (Promega, Madison, WI) according to the recommendations of the manufacturer. This assay is a luminescent ADP detection assay that provides a homogeneous and high-throughput screening method to measure kinase activity by quantifying the amount of ADP produced during a kinase reaction. Briefly, the reactions were carried out in a final volume of 6 µL for 30 min at 30 °C in appropriate kinase buffer, with either protein or peptide as substrate in the presence of 10 µM ATP. After that, 6 µL of ADP-GloTM Kinase Reagent was added to stop the kinase reaction. After an incubation time of 50 min at room temperature (rt), 12 µL of Kinase Detection Reagent was added for one hour at rt. The transmitted signal was measured using the Envision (PerkinElmer, Waltham, MA) microplate luminometer and expressed in Relative Light Units (RLU). In order to determine the half maximal inhibitory concentration (IC50), the assays were performed in duplicate in the absence or presence of increasing doses of the tested compounds. Kinase activities are expressed in % of maximal activity, i.e. measured in the absence of inhibitor. The peptide substrate was obtained from Proteogenix (Schiltigheim, France). RnDYRK1A-kd was assayed in buffer A with 0.033 μg/µl of the peptide […] as substrate (buffer A: 10 mM MgCl2, 1 mM EGTA, 1 mM DTT, 25 mM Tris-HCl pH 7.5, 50 µg/mL heparin). All data points for construction of dose response curves were recorded in triplicate. Typically, the standard deviation of single data points was below 10%.

[5] = target: T1, DYRK1A (Homo sapiens, UniProt Q13627); assay: Protein kinase assay, radiometric; type: biochemical; conditions: dose response curves, triplicates
Protocol: as §1, §2

[6] = target: GSK-3; assay: Protein kinase assay, radiometric; type: biochemical; conditions: dose response curves, triplicates
Protocol: as §1, §2

[7] = target: CLK1 (Mus musculus, UniProt P22518); assay: Protein kinase assay, radiometric; type: biochemical; conditions: dose response curves, triplicates
Protocol: as §1, §2

[8] = target: CDK5 (Homo sapiens, UniProt Q00535); assay: Protein kinase assay, radiometric; type: biochemical; conditions: dose response curves, triplicates
Protocol: as §1, §2

[9] = target: CDK9 (Homo sapiens, UniProt P50750); assay: Protein kinase assay, radiometric; type: biochemical; conditions: dose response curves, triplicates
Protocol: as §1, §2

[10] = target: CDK2 (Homo sapiens, UniProt P24941); assay: Protein kinase assay, radiometric; type: biochemical; conditions: dose response curves, triplicates
Protocol: as §1, §2

[11] = target: CDK1; assay: Protein kinase assay, radiometric; type: biochemical; conditions: dose response curves, triplicates
Protocol: as §1, §2

[12] = test system: MAO-A; design: method as in PMID 15010457, PMID 20981014; conditions: cited from earlier work
[13] = target: RnDYRK1A-kd (Rattus norvegicus, UniProt Q63470); assay: ADP-Glo luminescent kinase assay; type: biochemical, Rn; conditions: for DYRK1A inhibitory activity (in words): ADP-Glo assay
Protocol: as §2

[14] = target: T1, DYRK1A; design: method as in PMID 25264830, PMID 27766861; conditions: cited from earlier work
[15] = test system: DYRK1B; design: method as in PMID 25264830, PMID 27766861; conditions: cited from earlier work

Chain of CLK1 (P22518 whole entry): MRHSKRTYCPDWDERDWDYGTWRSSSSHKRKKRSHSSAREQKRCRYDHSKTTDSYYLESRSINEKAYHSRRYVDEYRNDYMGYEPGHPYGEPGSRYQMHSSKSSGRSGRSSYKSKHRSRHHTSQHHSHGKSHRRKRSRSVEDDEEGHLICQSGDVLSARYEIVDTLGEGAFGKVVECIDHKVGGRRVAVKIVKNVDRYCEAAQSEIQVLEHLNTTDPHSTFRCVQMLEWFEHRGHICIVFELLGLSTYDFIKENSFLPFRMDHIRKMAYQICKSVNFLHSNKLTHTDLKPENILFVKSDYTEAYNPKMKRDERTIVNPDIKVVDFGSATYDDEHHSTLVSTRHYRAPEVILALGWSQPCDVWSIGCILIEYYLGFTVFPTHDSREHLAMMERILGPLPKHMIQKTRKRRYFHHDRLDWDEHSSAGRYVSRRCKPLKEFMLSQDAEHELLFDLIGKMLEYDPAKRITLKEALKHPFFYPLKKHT
Chain of CDK5 (Q00535 whole entry, species assumed): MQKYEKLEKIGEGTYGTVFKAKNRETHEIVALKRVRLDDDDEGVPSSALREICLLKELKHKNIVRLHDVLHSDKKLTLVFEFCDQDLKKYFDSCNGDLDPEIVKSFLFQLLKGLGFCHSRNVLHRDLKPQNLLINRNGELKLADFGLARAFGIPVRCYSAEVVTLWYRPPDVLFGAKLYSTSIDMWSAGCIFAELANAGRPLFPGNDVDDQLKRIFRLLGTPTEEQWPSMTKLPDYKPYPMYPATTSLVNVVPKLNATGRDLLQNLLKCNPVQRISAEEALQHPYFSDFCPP
Chain of CDK5 (Q15078 99-307 partner limits assumed, species assumed): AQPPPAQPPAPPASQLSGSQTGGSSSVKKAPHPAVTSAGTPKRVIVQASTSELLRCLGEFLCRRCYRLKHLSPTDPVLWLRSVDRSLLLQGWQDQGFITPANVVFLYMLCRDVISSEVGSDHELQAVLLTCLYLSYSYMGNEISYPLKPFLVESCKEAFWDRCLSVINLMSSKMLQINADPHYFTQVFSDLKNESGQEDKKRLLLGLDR
Chain of CDK9 (P50750 whole entry, species assumed): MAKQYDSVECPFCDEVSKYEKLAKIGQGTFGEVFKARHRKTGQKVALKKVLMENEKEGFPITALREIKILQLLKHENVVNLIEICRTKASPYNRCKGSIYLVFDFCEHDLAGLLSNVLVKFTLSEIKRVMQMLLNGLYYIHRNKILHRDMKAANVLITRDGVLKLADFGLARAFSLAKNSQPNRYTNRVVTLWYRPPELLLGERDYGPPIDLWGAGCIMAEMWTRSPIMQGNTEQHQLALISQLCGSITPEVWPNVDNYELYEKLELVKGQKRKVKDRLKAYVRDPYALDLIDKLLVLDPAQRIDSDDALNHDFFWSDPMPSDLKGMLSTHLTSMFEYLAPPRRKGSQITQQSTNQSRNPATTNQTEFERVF
Chain of CDK9 (O60563 whole entry partner, species assumed): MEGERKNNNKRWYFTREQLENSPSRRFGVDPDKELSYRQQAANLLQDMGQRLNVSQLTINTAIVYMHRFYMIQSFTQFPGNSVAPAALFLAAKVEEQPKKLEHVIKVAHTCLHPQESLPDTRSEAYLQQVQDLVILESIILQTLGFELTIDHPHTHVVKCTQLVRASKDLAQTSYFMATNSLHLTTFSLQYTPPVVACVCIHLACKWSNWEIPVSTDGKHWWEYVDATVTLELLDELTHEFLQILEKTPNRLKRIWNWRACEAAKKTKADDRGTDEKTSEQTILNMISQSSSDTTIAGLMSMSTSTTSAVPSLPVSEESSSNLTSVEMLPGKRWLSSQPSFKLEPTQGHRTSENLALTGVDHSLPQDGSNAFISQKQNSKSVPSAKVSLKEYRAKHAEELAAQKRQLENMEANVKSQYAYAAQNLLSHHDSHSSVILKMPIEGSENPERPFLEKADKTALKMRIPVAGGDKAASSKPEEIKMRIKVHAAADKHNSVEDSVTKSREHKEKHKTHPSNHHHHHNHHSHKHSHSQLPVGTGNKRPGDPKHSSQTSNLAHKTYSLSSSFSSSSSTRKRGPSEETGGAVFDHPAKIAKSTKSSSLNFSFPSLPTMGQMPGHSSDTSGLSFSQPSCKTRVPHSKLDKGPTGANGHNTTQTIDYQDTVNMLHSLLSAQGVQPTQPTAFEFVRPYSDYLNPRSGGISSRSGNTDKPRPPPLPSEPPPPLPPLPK

O=C(O)c1nc2ccccc2c2[nH]c3c(I)cccc3c12 [compound 10, reference compound]
IC50 [1]: > 10000 nM | solubility kinetic [2]: 5.28 µM (≈ 2.05 µg/mL) | solubility thermodynamic [3]: < 5 µM

O=C1CCCc2[nH]c3c(Cl)cccc3c21 [compound 13, 8-Chloro-1,2,3,9-tetrahydro-4H-carbazol-4-one]
IC50 [4]: > 10000 nM | IC50 [5]: 1600 nM | IC50 [6]: 4400 nM | IC50 [7]: 300 nM | IC50 [8]: 8200 nM

O=C1CCc2[nH]c3c(Cl)cccc3c21 [compound 12, 5-Chloro-3,4-dihydrocyclopenta[b]indol-1(2H)-one]
IC50 [4]: > 10000 nM | IC50 [5]: 710 nM | IC50 [6]: > 10000 nM | IC50 [9]: > 10000 nM | IC50 [10]: > 10000 nM | IC50 [7]: 890 nM | IC50 [8]: > 10000 nM | IC50 [11]: > 10000 nM

CCN1/C(=C/C(C)=O)Sc2ccc(O)cc21 [compound 4]
MAO-A inhibition [12]: no MAO-A inhibition

O=C1NCCc2[nH]c3c(Cl)cccc3c21 [compound 14, 6-Chloro-2,3,4,5-tetrahydro-1H-pyrido[4,3-b]indol-1-one]
IC50 [4]: 3600 nM | IC50 [5]: 190 nM | IC50 [6]: 2700 nM | IC50 [9]: 880 nM | IC50 [10]: 1700 nM | IC50 [7]: 120 nM | IC50 [8]: 810 nM | IC50 [11]: 1200 nM

O=C1NCCCc2[nH]c3c(Cl)cccc3c21 [compound 15, 7-Chloro-3,4,5,6-tetrahydroazepino[4,3-b]indol-1(2H)-one]
IC50 [4]: 4200 nM | IC50 [5]: 2200 nM | IC50 [6]: > 10000 nM | IC50 [9]: 2200 nM | IC50 [10]: 2500 nM | IC50 [7]: 320 nM | IC50 [8]: 2500 nM | IC50 [11]: 7000 nM

CN(C)CC1CCc2[nH]c3c(Cl)cccc3c2C1=O (racemic) [compound 28, (R,S)-8-Chloro-3-[(dimethylamino)methyl]-1,2,3,9-tetrahydro-4H-carbazol-4-one hydrochloride]
DYRK1A inhibitory activity (in words) [13]: inactive

COC(=N)c1nc2ccc3ncnc(Nc4ccc(Cl)cc4Cl)c3c2s1 [compound 7]
Activity on DYRK1A [14]: subnanomolar | Activity on DYRK1B [15]: subnanomolar

O=C1c2c([nH]c3c(Cl)cccc23)CCC1CN1CCCCC1 (racemic) [compound 16, (R,S)-8-Chloro-3-(piperidin-1-ylmethyl)-1,2,3,9-tetrahydro-4H-carbazol-4-one hydrochloride]
DYRK1A inhibitory activity (in words) [13]: complete loss of DYRK1A inhibitory activity | IC50 ([13]; ADP-Glo assay kit, 10 µM ATP, read-out: IC50 DYRK1A): > 10000 nM | solubility kinetic [2]: 2310 µM | solubility thermodynamic [3]: 13600 µM

O=C1c2c([nH]c3c(Cl)cccc23)CCC1CN1CCOCC1 (racemic) [compound 27, (R,S)-8-Chloro-3-(morpholinomethyl)-1,2,3,9-tetrahydro-4H-carbazol-4-one hydrochloride]
DYRK1A inhibitory activity (in words) [13]: inactive

O=c1ccccc2[nH]c3c(Cl)cccc3c12 [compound 11, 4-Chlorocyclohepta[b]indol-10(5H)-one]
IC50 [4]: > 10000 nM | IC50 [5]: 200 nM | IC50 [6]: > 10000 nM | IC50 [9]: > 10000 nM | IC50 [10]: > 10000 nM | IC50 [7]: 170 nM | IC50 [8]: > 10000 nM | IC50 [11]: > 10000 nM | solubility kinetic [2]: 26.1 µM (≈ 5.99 µg/mL) | Improvement of kinetic solubility compared to 10 ([2]; phosphate buffer pH 7.4): fivefold improved solubility | solubility thermodynamic [3]: < 5 µM

Reference: article PMC6891749, “[b]-Annulated Halogen-Substituted Indoles as Potential DYRK1A Inhibitors” (Molecules, 2019)
